Source: the kinase profiling compilation of Christmann-Franck et al. (2016)
Where “and” joins values, the source holds several entries; their conditions need not be identical. Equal entries are not always repeated.

What was measured:
Assay in all cases: radiometric filter-binding kinase assay, Kinase HotSpot
Conditions in all cases: compound 0.5 µM; ATP 10 µM
VRK1 (human) = VRK1 (human) (UniProt Q99986)
CLK2 (human) = CLK2 (human) (UniProt P49760)
PRKG2 (human) = PRKG2 (human) (UniProt Q13237)
DMPK (human) = DMPK (human) (UniProt Q09013)
PRKD3 (human) = PRKD3 (human) (UniProt O94806)
NUAK2 (human) = NUAK2 (human) (UniProt Q9H093)
BRSK1 (human) = BRSK1 (human) (UniProt Q8TDC3)
PBK (human) = PBK (human) (UniProt Q96KB5)
IKBKE (human) = IKBKE (human) (UniProt Q14164)
DAPK1 (human) = DAPK1 (human) (UniProt P53355)
AKT2 (human) = AKT2 (human) (UniProt P31751)
NEK9 (human) = NEK9 (human) (UniProt Q8TD19)
SRMS (human) = SRMS (human) (UniProt Q9H3Y6)
CAMK2D (human) = CAMK2D (human) (UniProt Q13557)
MYO3B (human) = MYO3B (human) (UniProt Q8WXR4)
PRKCD (human) = PRKCD (human) (UniProt Q05655)
BMX (human) = BMX (human) (UniProt P51813)
CDC42BPB (human) = CDC42BPB (human) (UniProt Q9Y5S2)
SLK (human) = SLK (human) (UniProt Q9H2G2)
NTRK3 (human) = NTRK3 (human) (UniProt Q16288)
PRKG1 (human) = PRKG1 (human) (UniProt Q13976)
PRKCB1 (human) = PRKCB1 (human) (UniProt P05771)
TTK (human) = TTK (human) (UniProt P33981)
GRK6 (human) = GRK6 (human) (UniProt P43250)
ROCK1 (human) = ROCK1 (human) (UniProt Q13464)
MLTK (human) = MLTK (human) (UniProt Q9NYL2)
CSK (human) = CSK (human) (UniProt P41240)
GSG2 (human) = GSG2 (human) (UniProt Q8TF76)
SGK2 (human) = SGK2 (human) (UniProt Q9HBY8)
CDK4 CCND1 (human) = CDK4 CCND1 (human) (UniProt P24385+P11802)
RPS6KA5 KD2 (human) = RPS6KA5 KD2 (human) (UniProt O75582)
LCK (human) = LCK (human) (UniProt P06239)
EPHA4 (human) = EPHA4 (human) (UniProt P54764)
YES1 (human) = YES1 (human) (UniProt P07947)
MAP3K7 TAB1 (human) = MAP3K7 TAB1 (human) (UniProt O43318+Q15750)
EPHB1 (human) = EPHB1 (human) (UniProt P54762)
STK4 (human) = STK4 (human) (UniProt Q13043)
LIMK1 (human) = LIMK1 (human) (UniProt P53667)
MAP2K1 (human) = MAP2K1 (human) (UniProt Q02750)
TAOK1 (human) = TAOK1 (human) (UniProt Q7L7X3)
NEK2 (human) = NEK2 (human) (UniProt P51955)
PRKCE (human) = PRKCE (human) (UniProt Q02156)

DAPK1 (human), sequence (P53355 whole entry, looked up): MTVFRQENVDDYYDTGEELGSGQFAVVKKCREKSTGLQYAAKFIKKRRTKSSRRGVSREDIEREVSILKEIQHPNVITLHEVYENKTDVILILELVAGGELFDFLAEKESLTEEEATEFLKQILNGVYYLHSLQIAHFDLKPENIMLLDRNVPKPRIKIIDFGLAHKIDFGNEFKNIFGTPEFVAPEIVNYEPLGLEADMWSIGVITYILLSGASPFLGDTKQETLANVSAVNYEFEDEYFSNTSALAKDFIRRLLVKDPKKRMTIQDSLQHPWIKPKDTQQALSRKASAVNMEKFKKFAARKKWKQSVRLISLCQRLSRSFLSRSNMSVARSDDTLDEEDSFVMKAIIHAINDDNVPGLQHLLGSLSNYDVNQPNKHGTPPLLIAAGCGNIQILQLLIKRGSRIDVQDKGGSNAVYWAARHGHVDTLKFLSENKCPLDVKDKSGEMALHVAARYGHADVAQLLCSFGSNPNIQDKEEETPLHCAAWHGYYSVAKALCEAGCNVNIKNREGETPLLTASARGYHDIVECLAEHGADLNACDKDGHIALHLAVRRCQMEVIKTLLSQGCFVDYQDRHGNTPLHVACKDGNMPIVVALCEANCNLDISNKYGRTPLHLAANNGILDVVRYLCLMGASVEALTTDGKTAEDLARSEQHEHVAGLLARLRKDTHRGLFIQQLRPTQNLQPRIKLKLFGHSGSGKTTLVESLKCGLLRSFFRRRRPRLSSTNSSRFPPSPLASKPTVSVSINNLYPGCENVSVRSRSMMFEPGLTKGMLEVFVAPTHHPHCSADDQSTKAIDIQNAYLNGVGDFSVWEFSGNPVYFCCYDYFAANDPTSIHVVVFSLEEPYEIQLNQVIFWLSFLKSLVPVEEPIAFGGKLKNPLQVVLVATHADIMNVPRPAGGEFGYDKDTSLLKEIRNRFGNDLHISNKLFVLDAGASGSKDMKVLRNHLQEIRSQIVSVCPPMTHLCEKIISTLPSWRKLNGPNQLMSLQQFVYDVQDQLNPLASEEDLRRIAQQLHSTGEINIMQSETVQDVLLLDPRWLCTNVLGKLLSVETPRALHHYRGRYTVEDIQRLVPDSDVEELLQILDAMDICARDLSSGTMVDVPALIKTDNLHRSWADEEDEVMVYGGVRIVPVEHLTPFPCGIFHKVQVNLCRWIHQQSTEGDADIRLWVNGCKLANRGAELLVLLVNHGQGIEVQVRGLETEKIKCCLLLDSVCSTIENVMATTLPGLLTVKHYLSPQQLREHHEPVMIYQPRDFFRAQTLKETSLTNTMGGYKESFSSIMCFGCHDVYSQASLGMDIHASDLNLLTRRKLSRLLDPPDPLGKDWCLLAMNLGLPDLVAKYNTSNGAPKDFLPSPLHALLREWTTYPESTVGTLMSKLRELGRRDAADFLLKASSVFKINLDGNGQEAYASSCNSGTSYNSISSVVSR
MAP3K7 TAB1 (human), sequence (O43318 whole entry, looked up): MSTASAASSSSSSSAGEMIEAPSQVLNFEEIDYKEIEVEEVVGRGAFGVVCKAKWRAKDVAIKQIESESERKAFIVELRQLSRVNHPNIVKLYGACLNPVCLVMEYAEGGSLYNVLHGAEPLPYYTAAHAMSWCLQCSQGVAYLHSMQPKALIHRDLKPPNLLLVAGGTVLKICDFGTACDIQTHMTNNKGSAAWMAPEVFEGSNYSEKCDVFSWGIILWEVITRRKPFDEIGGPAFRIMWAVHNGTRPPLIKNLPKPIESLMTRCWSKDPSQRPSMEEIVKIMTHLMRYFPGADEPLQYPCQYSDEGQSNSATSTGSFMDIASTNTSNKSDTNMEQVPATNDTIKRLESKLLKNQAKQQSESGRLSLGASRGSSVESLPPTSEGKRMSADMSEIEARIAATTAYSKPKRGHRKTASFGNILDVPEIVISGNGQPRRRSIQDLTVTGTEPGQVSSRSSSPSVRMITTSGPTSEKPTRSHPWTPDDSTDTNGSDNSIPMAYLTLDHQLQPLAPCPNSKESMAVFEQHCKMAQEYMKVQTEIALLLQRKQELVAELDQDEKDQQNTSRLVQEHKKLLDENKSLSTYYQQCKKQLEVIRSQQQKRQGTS
MAP3K7 TAB1 (human), sequence (Q15750 whole entry, looked up): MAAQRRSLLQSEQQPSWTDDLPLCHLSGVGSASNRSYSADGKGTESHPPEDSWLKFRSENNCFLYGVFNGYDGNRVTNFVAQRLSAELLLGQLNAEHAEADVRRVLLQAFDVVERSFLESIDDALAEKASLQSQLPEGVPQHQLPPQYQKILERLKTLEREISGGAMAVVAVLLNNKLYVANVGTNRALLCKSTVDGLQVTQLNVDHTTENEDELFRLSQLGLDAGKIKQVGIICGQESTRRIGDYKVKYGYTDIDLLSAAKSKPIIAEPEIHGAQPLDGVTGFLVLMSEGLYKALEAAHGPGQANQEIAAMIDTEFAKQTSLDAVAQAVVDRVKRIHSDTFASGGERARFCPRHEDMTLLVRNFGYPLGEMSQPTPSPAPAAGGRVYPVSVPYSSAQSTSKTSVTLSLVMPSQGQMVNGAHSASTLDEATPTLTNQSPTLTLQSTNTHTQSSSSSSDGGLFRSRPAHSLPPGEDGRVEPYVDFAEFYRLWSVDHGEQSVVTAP
CDC42BPB (human), sequence (Q9Y5S2 whole entry, looked up): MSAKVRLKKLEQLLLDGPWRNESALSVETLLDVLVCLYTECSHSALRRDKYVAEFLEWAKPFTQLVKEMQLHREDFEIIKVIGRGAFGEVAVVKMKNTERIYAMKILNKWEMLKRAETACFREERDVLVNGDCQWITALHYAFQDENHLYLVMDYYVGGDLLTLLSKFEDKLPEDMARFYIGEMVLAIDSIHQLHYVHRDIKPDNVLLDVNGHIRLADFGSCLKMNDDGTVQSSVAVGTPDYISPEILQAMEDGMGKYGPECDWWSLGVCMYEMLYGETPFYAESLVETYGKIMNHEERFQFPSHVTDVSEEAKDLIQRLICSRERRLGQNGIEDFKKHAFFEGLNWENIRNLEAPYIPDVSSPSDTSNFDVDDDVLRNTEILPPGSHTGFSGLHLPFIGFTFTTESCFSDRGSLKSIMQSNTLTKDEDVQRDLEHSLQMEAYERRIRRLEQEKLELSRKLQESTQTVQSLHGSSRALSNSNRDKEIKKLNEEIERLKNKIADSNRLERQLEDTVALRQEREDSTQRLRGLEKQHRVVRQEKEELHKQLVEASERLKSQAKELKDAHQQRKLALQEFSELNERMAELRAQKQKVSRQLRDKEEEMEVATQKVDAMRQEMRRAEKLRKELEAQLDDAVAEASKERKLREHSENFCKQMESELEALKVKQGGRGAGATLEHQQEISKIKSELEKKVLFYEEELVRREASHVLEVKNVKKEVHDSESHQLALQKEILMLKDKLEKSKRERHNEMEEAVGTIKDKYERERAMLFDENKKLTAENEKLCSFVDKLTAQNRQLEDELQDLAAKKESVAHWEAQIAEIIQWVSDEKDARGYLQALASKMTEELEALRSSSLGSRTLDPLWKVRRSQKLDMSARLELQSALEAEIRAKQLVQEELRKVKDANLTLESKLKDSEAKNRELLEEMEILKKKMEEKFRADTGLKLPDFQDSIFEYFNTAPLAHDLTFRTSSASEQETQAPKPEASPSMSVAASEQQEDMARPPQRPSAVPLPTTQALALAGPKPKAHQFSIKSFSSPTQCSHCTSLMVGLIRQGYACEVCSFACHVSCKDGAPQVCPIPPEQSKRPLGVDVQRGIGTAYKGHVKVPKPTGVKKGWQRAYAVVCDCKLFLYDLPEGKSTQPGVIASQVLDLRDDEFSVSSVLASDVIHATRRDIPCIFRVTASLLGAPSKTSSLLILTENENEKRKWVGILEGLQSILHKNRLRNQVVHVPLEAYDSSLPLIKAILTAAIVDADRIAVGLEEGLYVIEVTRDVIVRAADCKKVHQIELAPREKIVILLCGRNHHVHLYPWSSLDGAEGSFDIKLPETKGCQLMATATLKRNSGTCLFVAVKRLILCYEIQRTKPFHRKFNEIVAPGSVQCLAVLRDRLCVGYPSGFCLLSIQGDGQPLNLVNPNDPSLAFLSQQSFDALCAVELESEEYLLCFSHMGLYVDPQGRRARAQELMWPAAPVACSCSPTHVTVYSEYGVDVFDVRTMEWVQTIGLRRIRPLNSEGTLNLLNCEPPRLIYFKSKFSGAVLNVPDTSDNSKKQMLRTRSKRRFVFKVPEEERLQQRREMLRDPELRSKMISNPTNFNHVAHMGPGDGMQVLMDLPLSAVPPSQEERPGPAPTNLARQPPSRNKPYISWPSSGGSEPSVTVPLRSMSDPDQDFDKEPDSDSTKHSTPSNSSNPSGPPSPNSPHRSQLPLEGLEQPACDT
MLTK (human), sequence (Q9NYL2 whole entry, looked up): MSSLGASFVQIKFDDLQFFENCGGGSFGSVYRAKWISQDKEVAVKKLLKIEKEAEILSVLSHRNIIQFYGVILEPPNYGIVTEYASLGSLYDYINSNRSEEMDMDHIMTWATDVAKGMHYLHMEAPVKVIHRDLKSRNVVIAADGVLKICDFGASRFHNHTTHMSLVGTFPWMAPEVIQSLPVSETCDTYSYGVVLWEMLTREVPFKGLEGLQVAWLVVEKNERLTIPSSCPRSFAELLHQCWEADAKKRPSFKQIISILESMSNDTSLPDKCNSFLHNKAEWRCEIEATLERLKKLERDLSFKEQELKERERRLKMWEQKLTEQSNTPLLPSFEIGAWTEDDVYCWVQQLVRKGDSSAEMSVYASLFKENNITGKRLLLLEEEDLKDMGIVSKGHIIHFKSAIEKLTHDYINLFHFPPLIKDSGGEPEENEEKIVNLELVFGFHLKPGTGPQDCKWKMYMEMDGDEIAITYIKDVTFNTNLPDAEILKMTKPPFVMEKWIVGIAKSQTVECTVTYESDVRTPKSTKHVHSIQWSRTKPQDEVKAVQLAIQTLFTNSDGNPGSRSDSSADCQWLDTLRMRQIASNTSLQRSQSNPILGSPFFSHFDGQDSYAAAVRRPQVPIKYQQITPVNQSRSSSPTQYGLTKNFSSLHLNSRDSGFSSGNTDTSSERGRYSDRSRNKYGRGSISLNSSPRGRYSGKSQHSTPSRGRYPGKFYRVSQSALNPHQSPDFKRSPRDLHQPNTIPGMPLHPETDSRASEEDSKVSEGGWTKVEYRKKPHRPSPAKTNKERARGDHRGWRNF

Work on `c1ccc(-c2n[nH]cc2-c2ccnc3ccccc23)nc1` yielded a residual activity (VRK1 (human)) of 92.6%, a residual activity (CLK2 (human)) of 99.4% and a residual activity (PRKG2 (human)) of 89.2%. It also gave a residual activity (DMPK (human)) of 106%, a residual activity (PRKD3 (human)) of 56.1% and a residual activity (NUAK2 (human)) of 135%. For the same compound, the residual activity (BRSK1 (human)) was 99%, the residual activity (PBK (human)) was 91.9% and the residual activity (IKBKE (human)) was 101%. It also gave a residual activity (DAPK1 (human)) of 111%, a residual activity (AKT2 (human)) of 93% and a residual activity (NEK9 (human)) of 94.7%. The residual activity (SRMS (human)) was 105%, the residual activity (CAMK2D (human)) was 101% and the residual activity (MYO3B (human)) was 91.7%. The residual activity (PRKCD (human)) was 96.6%, the residual activity (BMX (human)) was 89.2% and the residual activity (CDC42BPB (human)) was 102%. The residual activity (SLK (human)) was 104%, the residual activity (NTRK3 (human)) was 92.7% and the residual activity (PRKG1 (human)) was 86% and 92.7%. For the same compound, the residual activity (PRKCB1 (human)) was 102%, the residual activity (TTK (human)) was 97.4% and the residual activity (GRK6 (human)) was 94.6%. The residual activity (ROCK1 (human)) was 103%, the residual activity (MLTK (human)) was 78% and the residual activity (CSK (human)) was 102%. It also gave a residual activity (GSG2 (human)) of 90.8%, a residual activity (SGK2 (human)) of 101% and a residual activity (CDK4 CCND1 (human)) of 101%. It also gave a residual activity (RPS6KA5 KD2 (human)) of 102%, a residual activity (LCK (human)) of 91.7% and a residual activity (EPHA4 (human)) of 98%. For the same compound, the residual activity (YES1 (human)) was 93.3%, the residual activity (MAP3K7 TAB1 (human)) was 98.4% and the residual activity (EPHB1 (human)) was 98.7%. The residual activity (STK4 (human)) was 101%, the residual activity (LIMK1 (human)) was 103% and the residual activity (MAP2K1 (human)) was 93.7%. The residual activity (TAOK1 (human)) was 93%, the residual activity (NEK2 (human)) was 97% and the residual activity (PRKCE (human)) was 101%.

In the case of `CNc1cc2c(Nc3cccc(Br)c3)ncnc2cn1`, the residual activity (VRK1 (human)) is reported as 90.2%, the residual activity (CLK2 (human)) is reported as 88.3% and the residual activity (PRKG2 (human)) is reported as 102%. It also gave a residual activity (DMPK (human)) of 112%, a residual activity (PRKD3 (human)) of 78.5% and a residual activity (NUAK2 (human)) of 85%. The residual activity (BRSK1 (human)) was 91.2%, the residual activity (PBK (human)) was 102% and the residual activity (IKBKE (human)) was 87.1%. For the same compound, the residual activity (DAPK1 (human)) was 80.5%, the residual activity (AKT2 (human)) was 99.6% and the residual activity (NEK9 (human)) was 99.4%. For the same compound, the residual activity (SRMS (human)) was 100%, the residual activity (CAMK2D (human)) was 97.9% and the residual activity (MYO3B (human)) was 91.1%. It also gave a residual activity (PRKCD (human)) of 94.7%, a residual activity (BMX (human)) of 93.9% and a residual activity (CDC42BPB (human)) of 107%. The residual activity (SLK (human)) was 63%, the residual activity (NTRK3 (human)) was 72.7% and the residual activity (PRKG1 (human)) was 107% and 92.7%. The residual activity (PRKCB1 (human)) was 95.3%, the residual activity (TTK (human)) was 100% and the residual activity (GRK6 (human)) was 91.1%. The residual activity (ROCK1 (human)) was 98.8%, the residual activity (MLTK (human)) was 82.3% and the residual activity (CSK (human)) was 82%. The residual activity (GSG2 (human)) was 91.8%, the residual activity (SGK2 (human)) was 96.6% and the residual activity (CDK4 CCND1 (human)) was 104%. The residual activity (RPS6KA5 KD2 (human)) was 92.3%, the residual activity (LCK (human)) was 96.7% and the residual activity (EPHA4 (human)) was 94.2%. It also gave a residual activity (YES1 (human)) of 74.7%, a residual activity (MAP3K7 TAB1 (human)) of 94.9% and a residual activity (EPHB1 (human)) of 90.2%. It also gave a residual activity (STK4 (human)) of 95.4%, a residual activity (LIMK1 (human)) of 95.9% and a residual activity (MAP2K1 (human)) of 74.6%. For the same compound, the residual activity (TAOK1 (human)) was 92.4%, the residual activity (NEK2 (human)) was 88.3% and the residual activity (PRKCE (human)) was 99.8%.

With `O=C1NC(=O)/C(=C/c2ccc3c(c2)OC(F)(F)O3)S1` the residual activity (VRK1 (human)) was 85.6%, the residual activity (CLK2 (human)) was 96.6% and the residual activity (PRKG2 (human)) was 104%. For the same compound, the residual activity (DMPK (human)) was 97.5%, the residual activity (PRKD3 (human)) was 91.4% and the residual activity (NUAK2 (human)) was 74.8%. It also gave a residual activity (BRSK1 (human)) of 88%, a residual activity (PBK (human)) of 91.8% and a residual activity (IKBKE (human)) of 101%. The residual activity (DAPK1 (human)) was 120%, the residual activity (AKT2 (human)) was 96.2% and the residual activity (NEK9 (human)) was 109%. For the same compound, the residual activity (SRMS (human)) was 103%, the residual activity (CAMK2D (human)) was 97.1% and the residual activity (MYO3B (human)) was 87.9%. It also gave a residual activity (PRKCD (human)) of 93.2%, a residual activity (BMX (human)) of 99.6% and a residual activity (CDC42BPB (human)) of 96.4%. The residual activity (SLK (human)) was 98.3%, the residual activity (NTRK3 (human)) was 98% and the residual activity (PRKG1 (human)) was 109% and 95.6%. It also gave a residual activity (PRKCB1 (human)) of 97.7%, a residual activity (TTK (human)) of 102% and a residual activity (GRK6 (human)) of 95.4%. The residual activity (ROCK1 (human)) was 93.7%, the residual activity (MLTK (human)) was 97.6% and the residual activity (CSK (human)) was 88%. The residual activity (GSG2 (human)) was 96.7%, the residual activity (SGK2 (human)) was 82.2% and the residual activity (CDK4 CCND1 (human)) was 97.1%. For the same compound, the residual activity (RPS6KA5 KD2 (human)) was 91.1%, the residual activity (LCK (human)) was 98.3% and the residual activity (EPHA4 (human)) was 95.9%. It also gave a residual activity (YES1 (human)) of 87.9%, a residual activity (MAP3K7 TAB1 (human)) of 95.3% and a residual activity (EPHB1 (human)) of 95.6%. The residual activity (STK4 (human)) was 93.3%, the residual activity (LIMK1 (human)) was 96.4% and the residual activity (MAP2K1 (human)) was 95.6%. For the same compound, the residual activity (TAOK1 (human)) was 90%, the residual activity (NEK2 (human)) was 98.9% and the residual activity (PRKCE (human)) was 103%.

Compound `CC(C)N(CCC(=O)c1ccc2ccccc2c1)Cc1ccccc1` has a residual activity (VRK1 (human)) of 95.8%, a residual activity (CLK2 (human)) of 96.3% and a residual activity (PRKG2 (human)) of 139%. For the same compound, the residual activity (DMPK (human)) was 108%, the residual activity (PRKD3 (human)) was 98.1% and the residual activity (NUAK2 (human)) was 85.4%. The residual activity (BRSK1 (human)) was 98%, the residual activity (PBK (human)) was 108% and the residual activity (IKBKE (human)) was 93%. It also gave a residual activity (DAPK1 (human)) of 97.9%, a residual activity (AKT2 (human)) of 96.5% and a residual activity (NEK9 (human)) of 96.4%. It also gave a residual activity (SRMS (human)) of 103%, a residual activity (CAMK2D (human)) of 90% and a residual activity (MYO3B (human)) of 93.5%. For the same compound, the residual activity (PRKCD (human)) was 94%, the residual activity (BMX (human)) was 102% and the residual activity (CDC42BPB (human)) was 95%. The residual activity (SLK (human)) was 101%, the residual activity (NTRK3 (human)) was 103% and the residual activity (PRKG1 (human)) was 101% and 102%. It also gave a residual activity (PRKCB1 (human)) of 92.6%, a residual activity (TTK (human)) of 96% and a residual activity (GRK6 (human)) of 87.1%. The residual activity (ROCK1 (human)) was 98.6%, the residual activity (MLTK (human)) was 90.5% and the residual activity (CSK (human)) was 88.5%. It also gave a residual activity (GSG2 (human)) of 95.6%, a residual activity (SGK2 (human)) of 101% and a residual activity (CDK4 CCND1 (human)) of 103%. The residual activity (RPS6KA5 KD2 (human)) was 102%, the residual activity (LCK (human)) was 98.9% and the residual activity (EPHA4 (human)) was 94.5%. It also gave a residual activity (YES1 (human)) of 100%, a residual activity (MAP3K7 TAB1 (human)) of 95.4% and a residual activity (EPHB1 (human)) of 96.8%. It also gave a residual activity (STK4 (human)) of 92.5%, a residual activity (LIMK1 (human)) of 103% and a residual activity (MAP2K1 (human)) of 82.5%. It also gave a residual activity (TAOK1 (human)) of 94.9%, a residual activity (NEK2 (human)) of 86.9% and a residual activity (PRKCE (human)) of 95%.
